Test results from patent US8895032B2, “Dendritic nano-antioxidants” (Central Michigan University, priority 2009, dated 2014).

Legend:
[1] = test system: Chinese hamster ovary (CHO-K1) cells; assay: Cell toxicity, MTT; assay type: cell-based; settings: 3.1-50 μM, over 5 days
Experimental: Data on cell toxicity of compound 4 and compound 5 were obtained with Chinese hamster ovary (CHO) cells using 3-(4,5-di-methylthizol-2-yl)-2,5 diphenyltetrazolium bromide (MTT). Chinese Hamster Ovary (CHO-K1) cells were cultured in F-12K medium supplemented with 10% fetal bovine serum. The cells (3×10^5/ml) were seeded in 100 μL volumes in 96 well culture plates and incubated with the solvent control (DMSO, 0.3%), compound 4 or compound 5 at 3.1, 6.2, 12.5, 25, or 50 μM for 1, 3, or 5 days. Two hours prior to experimental termination, 20 μL of a 5 mg/mL MTT solution in 0.01 M PBS was added to each well. Plates were centrifuged at 450×g for 10 min and supernatant was removed. The resultant formazan crystals were dissolved in 100 μL DMSO and mixed. Absorbance was measured using a Biolog microplate reader (Biotek Instruments) at dual wavelengths, 590 and 650 nm. Percent control response was calculated as follows: (absorbance of treatment/absorbance of control)×100. All experiments were performed in triplicate and repeated. The data were analyzed using Systat 12 for windows. Multiple groups were compared using a one-way analysis of variance (ANOVA) and a Tukey test for mean separation. A p value<0.05 was considered statistically significant.

DPPH radical assay = settings: read-out: DPPH IC50 at 120 min; Example 15
Experimental: The DPPH assay was one of three electron transfer (ET) assays used to determine the antioxidant potential of compound 1 (described in Example 6) in comparison to its monomeric counterpart (syringaldehyde) as well as popular antioxidants. In an ET assay, an antioxidant donates electron(s) to a molecular probe, thus reducing it. From the assay, thermodynamic conversion of antioxidant to antioxidant radical (oxidation) is measured during a fixed time period.
The reduction of DPPH radical was determined for ascorbic acid, Trolox, syringaldehyde, and the compound 1 described in Example 6 as previously reported (Brand-Williams, et al. Lebensm.-Wiss U.-Technol. 1995, 28, 25-30, incorporated herein by reference in its entirety). In the DPPH assay, DPPH• radical was reduced by the antioxidant in methanol (Brand-Williams, et al. Lebensm.-Wiss U.-Technol. 1995, 28, 25-30, incorporated herein by reference in its entirety). […] The DPPH reagent was made in methanol. Antioxidant sample (10 μL) was added to 1.0 mL of reagent and the absorbance was monitored at 515 nm until a plateau was reached. Antioxidant concentrations were 50 μM syringaldehyde, 12.5 μM Trolox and ascorbic acid, and 5 μM compound 1. All samples were made in methanol and run in triplicates at room temperature.
The DPPH• scavenging capacity of each antioxidant was evaluated from the plot of the percentage DPPH• remaining when the kinetics reached a steady state as a function of the molar ratios of antioxidant to DPPH•. […] Using the curve, EC50 (the amount of antioxidant necessary to decrease the initial DPPH• concentration by 50%), antiradical power (1/EC50, ability to reduce the DPPH•), reaction stoichiometry (EC50×2, the concentration of antioxidant required to reduce 100% of DPPH• radical), and the number of reduced DPPH• per antioxidant molecule (1/stoichiometry) for each antioxidant were calculated as previously described (Brand-Williams, et al. Lebensm.-Wiss U.-Technol. 1995, 28, 25-30, incorporated herein by reference in its entirety) and are depicted in Table 1.
Antioxidant capacity of the compounds was assessed by the DPPH assay (Brand-Williams, et al. Lebensm. Wiss. Technol. 1995, 28, 25, incorporated herein by reference in its entirety). […] In FIG. 22, control with methanol is (X, dashed); compound 1 is (□), compound 2 is (•), compound 3 is (◯), and Trolox (Δ). All antioxidant concentrations were 5 μM.
The free-radical scavenging ability of the antioxidants was evaluated by the DPPH assay, as described above in Example 7.

plasmid DNA pBR 322 = assay: Protection of plasmid DNA from AAPH damage (agarose electrophoresis); assay type: biochemical; settings: 10 mM AAPH, 37° C., 4 h; for DNA protection: 5 μM antioxidant
Experimental: The effectiveness of the three compounds to protect DNA from AAPH damage was also determined. The plasmid DNA pBR 322 was incubated with AAPH (final concentration 10 mM) at 37° C. for 4 h with or without antioxidants (final concentrations, 0.35-45 μM), after which the samples were subjected to agarose electrophoresis (Sakihama, Y., et al. Toxicology 2002, 177, 67, incorporated herein by reference in its entirety). […] In the absence of AAPH, pBR 322 was mostly in its supercoiled (S) form (small amount of open circular, O, form was also visible, lane 1 FIG. 25). After reaction with AAPH, the DNA was transformed almost entirely into its open circular form (lane 2, FIG. 25). […] No protection was obtained for both compound 1 and quercetin below 5 μM (lanes 7-10, FIG. 25). […] Compound 3 as well as Trolox were ineffective at all concentrations used in the experiment (0.35-45 μM).
Protection of DNA from free radical damage by the antioxidant dendrimers (compounds 4, 5, and 1) was also evaluated. Plasmid DNA (pBR 322) samples, were incubated with AAPH (final concentration 10 mM) at 37° C. for 4 h with antioxidants (final concentrations, 0.35-45 μM) and subjected to agarose electrophoresis. […] The native DNA was mostly in its supercoiled (S) form (small amount of open circular, O, form was also visible, lane 1, FIG. 31). In the presence of AAPH, the DNA was transformed almost entirely into its O form (lane 2, FIG. 31). […] Negligible DNA protection was afforded by all three dendrimers at ≦2.5 μM (lanes 7-10, FIG. 31). Under similar conditions, Trolox as well as the starting materials for dendrimer synthesis were ineffective at all concentrations.

Human LDL = assay: Protection of LDL from AAPH oxidation (agarose gel electrophoresis); assay type: biochemical; settings: 21 h, 37° C.
From the text: The antioxidant activity of compounds 1, 2, and 3 towards biomolecules was examined by studying their ability to protect LDL, fatty acid, and DNA from free radicals. For LDL, AAPH was used to induce free radical damage. AAPH was used instead of copper (Cu^2) ion for LDL oxidation so that the free radical scavenging activity of the antioxidants could be measured without any pro-oxidant interference caused by metal ions (Salah, N. et al. Arch. Biochem. Biophys. 1995, 322, 339, incorporated herein by reference in its entirety). All solutions were made in ultra-pure water.
Protection of LDL from AAPH free radicals by the antioxidant decreased the anodic shift in a dose-dependent manner (FIG. 23). […] The increased hydrophobicity of compound 3 may be partly responsible for its improved LDL protection over compound 2.
The antioxidant activity of the antioxidants towards biomolecules was examined by studying their ability to protect LDL, lysozyme, and DNA from free radicals. For LDL, AAPH was used to induce free radical damage. AAPH was used instead of Cu^2+ for LDL oxidation so that the free radical scavenging activity of the antioxidants could be measured without any pro-oxidant interference caused by metal ions. The oxidation of human low-density lipoprotein was used as a model for evaluating the ability of the G1 dendrimers as chain-breaking antioxidants for lipid. Oxidation of LDL leads to changes in both the lipid and the protein moieties of the lipoprotein particle. Lipid peroxidation in LDL has been evaluated by a variety of methods. Due to the complexity of events that occur in lipoprotein oxidation, the electrophoretic migration pattern of oxidized LDL is one of the best methods to evaluate the extent of lipoprotein oxidation. LDL was incubated with 20 mM AAPH and increasing concentrations of the G1 dendrimers (0-37 μM in PBS) for 21 h at 37° C. The mixture was then subjected to agarose gel electrophoresis using the Ciba Corning Clinical Electrophoresis System. The agarose gel was stained with Fat Red 7B. In FIG. 30A (top), lane 1 is native LDL, and lanes 2-8 are AAPH-oxidized LDL with 0, 37, 18.5, 9, 4.5, 2 and 1 μM compound 4, respectively. In FIG. 30B (bottom), lane 1 is native LDL, and lanes 2-8 are AAPH-oxidized LDL with 0, 37, 18.5, 9, 4.5, 2 and 1 μM quercetin or Trolox, respectively.

Row | Structure (SMILES) | CHO cell viability (MTT) [1] | IC50 (DPPH radical assay) [nM] | DNA protection (plasmid DNA pBR 322) | DNA protection (S band intensity) (plasmid DNA pBR 322; 11-45 μM antioxidant) | protection of LDL against free radical damage (Human LDL; 15 μM and 30 μM, 20 mM AAPH) | protection of LDL at lower concentrations (Human LDL; lanes 5-8, 20 mM AAPH) | only concentration effective in protecting LDL (Human LDL; 20 mM AAPH) [µM]
1 | COc1cc(CN(CCN(CCN(Cc2cc(OC)c(O)c(OC)c2)Cc2cc(OC)c(O)c(OC)c2)CCN(Cc2cc(OC)c(O)c(OC)c2)Cc2cc(OC)c(O)c(OC)c2)Cc2cc(OC)c(O)c(OC)c2)cc(OC)c1O [Compound 4] | did not show any reduction in cell viability | 2000 | Some protection | well protected | fully protected | ineffective | 
2 | COc1cc(CN(CCN(CCN(Cc2ccc(O)c(OC)c2)Cc2ccc(O)c(OC)c2)CCN(Cc2ccc(O)c(OC)c2)Cc2ccc(O)c(OC)c2)Cc2ccc(O)c(OC)c2)ccc1O [Compound 5] | did not show any reduction in cell viability | 2000 | Some protection |  |  |  | 30
